Assays:
white blood cells = test: White blood cell number and differential, cattle (experiment 3); type: in vivo, castrated male cattle
Procedure: In experiment 3 72 castrated male cattle were allotted to 12 pens of 6 animals each. Three pens were assigned to each treatment: 0.0% KIC, 0.02% KIC, 0.07% KIC, and 0.20% KIC. Animals were fed ad libitum the respective diets for 6 weeks. At the end of the 6-233k periods, 100-ml blood samples were collected from each animal, and lymphocyte and neutrophil function were evaluated.
The basal cattle diet (experiment 3) consisted of 49% corn, 24% corn-cobs, 18% soybean meal, 7% molasses, 1.3% limestone, 0.25% dicalcium phosphate, 0.23% salt, 0.02% trace-mineral premix, and 0.11% vitamin premix. The basal diet was supplemented with w/w 0.05% control pellets, 0.04% KIC pellets, or 0.4% KIC pellets. All animals consumed ~10 kg of feed per day, resulting in ~0, 2, 7, or 20 g of Ca-KIC consumed per animal per day or 0, 0.02, 0.07, and 0.2% KIC of the total diet.
KIC pellets were made by mixing zein, ethanol, KIC, limestone, bentonite, and water in a ratio of […]. This mixture was extruded through a die of 15 mm directly into a vat of liquid nitrogen. The shattered pellets were spread out and allowed to air-dry for 2 days. The pellets were coated with zein (2% w/w) by spraying with a 30% zein solution made in 80% ethanol. The pellets again were air-dryed. Control pellets were made similarly to the KIC pellets except that the mixture was zein, limestone, ethanol, bentonite, and water in a ratio of 12:12:7.5:2.7:1. When KIC pellets were placed in the rumen (nylon bag technique), […] of the KIC added was present in the bags after 24 hr of rumen fermentation. It was estimated that uncoated KIC was 95% degraded in the rumen.
Blood was collected by jugular venapuncture into acid-citrate-dextrose anticoagulant. Lymphocytes and neutrophils were isolated, and lymphocyte blastogenesis and neutrophil function evaluated. KIC was obtained from SOBAC, Paris, France. Zein was purchased from Freeman Industries, Tuckahoe, NY. Each experiment was statistically analyzed by analysis of variance. In sheep experiments, individual animals were the experimental units, whereas pen means were analyzed in the cattle experiment.
^2 Total white blood cell number (WBC) is the cells per mm^3.

neutrophils = test: Neutrophil function (experiments 1 to 3); type: cell-based, sheep and cattle; conditions: any experiment
Procedure: A study was conducted to determine if KIC administration can alter white blood cell function, specifically T lymphocyte function, in growing sheep and cattle. Eighteen medium-framed crossbred male lambs were used in experiment 1. Lambs were randomly assigned to either a control diet (n=10) or a diet supplemented with 1% KIC (n=8). Animals were fed ad libitum in individual cages. At 100 and 108 days of treatment, 50-ml blood samples were collected for lymphocyte and neutrophil function tests. In experiment 2, 19 intact crossbred male lambs were randomly assigned to either a saline treatment group (n=9) or a KIC treatment group (n=10). Control lambs were injected with 50 ml of a saline solution, and KIC treated lambs were injected with 50 ml of a 5% solution of KIC (sodium salt) daily (~2.5 g KIC/day). All injections were made intraperitoneally in the right posterior abdominal region after disinfection of the area. […] At the end of the 6-233k periods, 100-ml blood samples were collected from each animal, and lymphocyte and neutrophil function were evaluated. […] Lymphocytes and neutrophils were isolated, and lymphocyte blastogenesis and neutrophil function evaluated. […] Each experiment was statistically analyzed by analysis of variance. In sheep experiments, individual animals were the experimental units, whereas pen means were analyzed in the cattle experiment.

For CC(C)CC(=O)C(=O)O [KIC, alpha-ketoisocaproate], the “% SEG” value (white blood cells; Exp. 3, oral coated 0.02% KIC (control 28)) was 29% of Total WBC, the “% LYM” value (white blood cells; Exp. 3, oral coated 0.02% KIC (control 52)) was 63% of Total WBC and the “% EOS” value (white blood cells; Exp. 3, oral coated 0.02% KIC (control .7)) was “.9% of Total WBC”. The “% SEG” value (white blood cells; Exp. 3, oral coated 0.07% KIC (control 28)) was 24% of Total WBC, the “% LYM” value (white blood cells; Exp. 3, oral coated 0.07% KIC (control 52)) was 69% of Total WBC and the “% EOS” value (white blood cells; Exp. 3, oral coated 0.07% KIC (control .7)) was “.7% of Total WBC”. For the same molecule, the “% SEG” value (white blood cells; Exp. 3, oral coated 0.20% KIC (control 28)) was 24% of Total WBC, the “% LYM” value (white blood cells; Exp. 3, oral coated 0.20% KIC (control 52)) was 52% of Total WBC and the “% EOS” value (white blood cells; Exp. 3, oral coated 0.20% KIC (control .7)) was 1.1% of Total WBC. For the same molecule, the antibody-dependent cell-mediated cytotoxicity (neutrophils) was “did not alter”.

— US4835185A, “Immunomodulator for improving commercial performance of domestic animals” (Iowa State University Research Foundation, Inc., priority 1987, dated 1989)
